Test system: Rats
Assay: Electroconvulsive threshold (ECT) test
Assay type: in vivo, rat
Conditions: p.o. 60 minutes before ECS, theophylline 128 mg/kg, diazepam 16 mg/kg

Compound | pro- or anticonvulsant activity (electroconvulsive threshold)
CN1C(=O)CN=C(c2ccccc2)c2cc(Cl)ccc21 [diazepam] | expected pro- and anticonvulsant activities
Cn1c(=O)c2[nH]cnc2n(C)c1=O [theophylline, Theophylline] | expected pro- and anticonvulsant activities

From US9968610B2, “Pyrrolopyrimidine derivatives as NR2B NMDA receptor antagonists” (Rugen Holdings (Cayman) Limited, priority 2014, dated 2018)
